{"source": "ChEMBL document CHEMBL3045900", "about": "“Synthesis and antitubercular activity of nucleoside analogs based on L-ascorbic acid and bases” (2008)", "key": {"[1]": {"tested_on": "Mycobacterium tuberculosis", "test": "Antitubercular activity against Mycobacterium tuberculosis H37Rv after 30 days by agar microdilution method", "assay_type": "functional"}, "[2]": {"tested_on": "Mycobacterium tuberculosis", "test": "Antitubercular activity against Mycobacterium tuberculosis H37Ra after 5 days by micro Alamar blue essay", "assay_type": "functional", "settings": "120 h"}}}
{"smiles": "NNC(=O)c1ccncc1", "note": "[ISONIAZID]", "values": [{"measurement": "MIC", "setting": "[1]", "result": 0.65, "unit": "µg/mL"}]}
{"smiles": "COC1=C(OC)C(O)(CCn2ccnc2)N(Cc2ccccc2)C1=O", "note": "(centres undefined)", "values": [{"measurement": "MIC", "setting": "[2]", "result": "> 12.5", "unit": "µg/mL"}, {"measurement": "MIC", "setting": "[1]", "result": "> 25", "unit": "µg/mL"}]}
{"smiles": "COC1=C(OC)/C(=C/Cn2ccnc2)OC1=O", "values": [{"measurement": "MIC", "setting": "[2]", "result": "> 12.5", "unit": "µg/mL"}, {"measurement": "MIC", "setting": "[1]", "result": "> 25", "unit": "µg/mL"}]}
{"smiles": "COC1=C(OC)C(=CCn2cnc3ccccc32)OC1=O", "values": [{"measurement": "MIC", "setting": "[2]", "result": "> 12.5", "unit": "µg/mL"}, {"measurement": "MIC", "setting": "[1]", "result": "> 25", "unit": "µg/mL"}]}
{"smiles": "COC1=C(OC)/C(=C/Cn2cnc3c(N)ncnc32)OC1=O", "values": [{"measurement": "MIC", "setting": "[2]", "result": "> 12.5", "unit": "µg/mL"}, {"measurement": "MIC", "setting": "[1]", "result": "> 25", "unit": "µg/mL"}]}
